From ChEMBL document CHEMBL1201862, “PubChem BioAssay data set” (2004)
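96-well plates; 48 h exposure; 5 concentrations. Endpoints by linear interpolation between flanking doses. Not reached: highest tested concentration assigned. GI50 marks 50% less growth.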 Calls of active or inactive are those of the source. No stated cut-off is given here; in the data, active = GI50 up to about 1.1 µM and inactive = higher.

Experiments:
Test in all cases: DTP human tumour cell line panel, 48 h
TK-10 = tested on: TK-10
SR = tested on: SR
LOX IMVI = tested on: LOX IMVI
M14 = tested on: M14
OVCAR-3 = tested on: OVCAR-3
HOP-92 = tested on: HOP-92
NCI-H23 = tested on: NCI-H23
OVCAR-5 = tested on: OVCAR-5
SNB-19 = tested on: SNB-19
IGROV-1 = tested on: IGROV-1
RXF 393 = tested on: RXF 393
CAKI-1 = tested on: CAKI-1
UACC-62 = tested on: UACC-62
SK-MEL-2 = tested on: SK-MEL-2
HCT-116 = tested on: HCT-116
COLO 205 = tested on: COLO 205
Hs-578T = tested on: Hs-578T
MDA-MB-435 = tested on: MDA-MB-435
PC-3 = tested on: PC-3

Row | Compound | GI50 (TK-10) | GI50 (SR) | GI50 (LOX IMVI) | GI50 (M14) | GI50 (OVCAR-3) | GI50 (HOP-92) | GI50 (NCI-H23) | GI50 (OVCAR-5) | GI50 (SNB-19) | GI50 (IGROV-1) | GI50 (RXF 393) | GI50 (CAKI-1) | GI50 (UACC-62) | GI50 (SK-MEL-2) | GI50 (HCT-116) | GI50 (COLO 205) | GI50 (Hs-578T) | GI50 (MDA-MB-435) | GI50 (PC-3)
1 | COc1ccccc1NC(=O)/C(=C/c1ccccc1)C(C)=O | 44.9 µM (inactive) | 36.6 µM (inactive) | 37.2 µM (inactive) | 25.2 µM (inactive) | 38.6 µM (inactive) | 45.3 µM (inactive) | 19.1 µM (inactive) | > 100 µM (inactive) | 47.3 µM (inactive) | 53 µM (inactive) | 20.7 µM (inactive) | 35.1 µM (inactive) | 32.9 µM (inactive) | 38.5 µM (inactive) | 43.3 µM (inactive) |  |  |  | 
2 | COc1ccc(NC(=O)CC/C(CC(=O)c2ccccc2Cl)=N\Nc2nnc(C)n2N)cc1 | > 100 µM (inactive) | > 100 µM (inactive) | > 100 µM (inactive) |  |  | > 100 µM (inactive) | > 100 µM (inactive) | > 100 µM (inactive) | > 100 µM (inactive) | > 100 µM (inactive) | > 100 µM (inactive) | > 100 µM (inactive) | > 100 µM (inactive) | > 100 µM (inactive) | > 100 µM (inactive) | > 100 µM (inactive) |  |  | 
3 | COc1ccc(C(=O)C(c2ccc(OC)cc2)C2(O)C(=O)Nc3c(C)cc(Cl)cc32)cc1 (stereo unspecified) | > 100 µM (inactive) | 12.5 µM (inactive) |  | 92 µM (inactive) | 52 µM (inactive) | 21.9 µM (inactive) | 85.5 µM (inactive) | > 100 µM (inactive) | > 100 µM (inactive) | 72.8 µM (inactive) | > 100 µM (inactive) |  | 23.2 µM (inactive) | > 100 µM (inactive) | 70.3 µM (inactive) | > 100 µM (inactive) |  |  | 
4 | CCOC(=O)/C(=C\NCC(O)c1ccccc1)c1nc2ccccc2[nH]1 (stereo unspecified) | 26.1 µM (inactive) | 17.5 µM (inactive) | 19.5 µM (inactive) | 30.4 µM (inactive) | 34.7 µM (inactive) | 22.1 µM (inactive) | 18.1 µM (inactive) | 26.4 µM (inactive) | 48.9 µM (inactive) | 20.1 µM (inactive) | 27.4 µM (inactive) | 32.4 µM (inactive) | 14.2 µM (inactive) |  | 28.6 µM (inactive) | 16.7 µM (inactive) | 20.5 µM (inactive) | 20.9 µM (inactive) | 
5 | NC(=O)c1nc(-c2ccc(Cl)c(Cl)c2)nc2ccccc12 | 22.6 µM (inactive) | > 100 µM (inactive) | > 100 µM (inactive) | > 100 µM (inactive) |  | 1.56 µM (inactive) | 39.7 µM (inactive) | > 100 µM (inactive) | 17.8 µM (inactive) | > 100 µM (inactive) | 12.5 µM (inactive) | > 94.4 µM (inactive) | > 24.9 µM (inactive) | 9.42 µM (inactive) | > 19.8 µM (inactive) | > 100 µM (inactive) |  |  | 
6 | O=[N+]([O-])c1cc(/C=N/NS(=O)(=O)c2ccc(F)cc2)c(O)c([N+](=O)[O-])c1 | 57.1 µM (inactive) | 18.4 µM (inactive) | 39.5 µM (inactive) | 22.9 µM (inactive) | 29 µM (inactive) | 38.4 µM (inactive) | 24.9 µM (inactive) | > 100 µM (inactive) | 33.7 µM (inactive) | 69.5 µM (inactive) | 36.6 µM (inactive) | 76.2 µM (inactive) | 46.3 µM (inactive) | 45.2 µM (inactive) | 33.7 µM (inactive) | 18.9 µM (inactive) |  |  | 
7 | C/C(=N/O)c1ccc2c(c1)/C(=N/O)c1cc(/C(C)=N/O)ccc1-2 | > 10 µM (inactive) | 3.45 µM (inactive) | 13 µM (inactive) | 16.4 µM (inactive) | 20.3 µM (inactive) | 26.1 µM (inactive) | 12.9 µM (inactive) | 17.4 µM (inactive) | 13.8 µM (inactive) | 21.1 µM (inactive) | 23 µM (inactive) | 35.8 µM (inactive) | 14.2 µM (inactive) | 23.9 µM (inactive) | 20.1 µM (inactive) | 17.8 µM (inactive) |  |  | 
8 | CC1=NN(C(=O)Nc2ccccc2)C(=O)C2CCC(=O)N12 (stereo unspecified) | > 100 µM (inactive) | > 100 µM (inactive) | > 100 µM (inactive) | > 100 µM (inactive) | > 100 µM (inactive) | > 100 µM (inactive) | > 100 µM (inactive) |  | > 100 µM (inactive) | > 100 µM (inactive) | > 100 µM (inactive) | > 100 µM (inactive) | > 100 µM (inactive) | > 100 µM (inactive) | > 100 µM (inactive) | > 100 µM (inactive) |  |  | 
9 | c1ccc(SC(Sc2ccccc2)=C2CCC2)cc1 | > 100 µM (inactive) | > 100 µM (inactive) | > 100 µM (inactive) | > 100 µM (inactive) | > 100 µM (inactive) | 55.3 µM (inactive) | > 100 µM (inactive) |  | > 100 µM (inactive) |  | > 100 µM (inactive) | > 100 µM (inactive) | 65 µM (inactive) | > 100 µM (inactive) | > 100 µM (inactive) | > 100 µM (inactive) |  |  | 
10 | CN(C(=O)c1ccco1)C(=S)N1CCN(c2ccccc2)CC1 | > 100 µM (inactive) | > 100 µM (inactive) | > 100 µM (inactive) | > 100 µM (inactive) | > 100 µM (inactive) | > 100 µM (inactive) | > 100 µM (inactive) | > 100 µM (inactive) | > 100 µM (inactive) | > 100 µM (inactive) | > 100 µM (inactive) | > 100 µM (inactive) | > 100 µM (inactive) | > 100 µM (inactive) | > 100 µM (inactive) | > 100 µM (inactive) |  |  | 
11 | CCOC(=O)CSc1c(C(=O)OCC)c(=O)n(-c2ccccc2)c(=S)n1-c1ccccc1 | > 100 µM (inactive) | 13.7 µM (inactive) | 15.6 µM (inactive) | > 100 µM (inactive) | > 100 µM (inactive) | 0.0371 µM (active) | 22.7 µM (inactive) | > 100 µM (inactive) | 34.7 µM (inactive) | 20.5 µM (inactive) |  | > 100 µM (inactive) | 36.3 µM (inactive) | 83 µM (inactive) | 45.7 µM (inactive) | 65.8 µM (inactive) | 33 µM (inactive) | 41.6 µM (inactive) | 4.61 µM (inactive)
12 | CN(C)/N=N/c1cccc(C(N)=O)c1 | > 100 µM (inactive) | > 100 µM (inactive) |  | > 100 µM (inactive) | > 100 µM (inactive) | > 100 µM (inactive) | > 100 µM (inactive) |  | > 100 µM (inactive) | > 100 µM (inactive) | > 100 µM (inactive) | > 100 µM (inactive) |  | > 100 µM (inactive) | > 100 µM (inactive) | > 100 µM (inactive) |  |  | 
13 | Cc1nc2sccn2c1C(=O)NN | > 100 µM (inactive) | > 100 µM (inactive) | > 100 µM (inactive) |  | > 100 µM (inactive) | > 100 µM (inactive) | > 100 µM (inactive) | > 100 µM (inactive) | > 100 µM (inactive) | > 100 µM (inactive) | > 100 µM (inactive) | > 100 µM (inactive) | > 100 µM (inactive) | > 100 µM (inactive) | > 100 µM (inactive) | > 100 µM (inactive) |  |  | 
14 | COc1cc2cc(C(=O)N3CC(CCl)c4c3cc(O)c3ccccc43)[nH]c2c(OC)c1OC (stereo unspecified) | < 0.005 µM (active) | < 0.005 µM (active) | < 0.005 µM (active) | < 0.005 µM (active) | < 0.005 µM (active) |  | < 0.005 µM (active) | < 0.005 µM (active) | < 0.005 µM (active) |  | < 0.005 µM (active) |  | < 0.005 µM (active) | < 0.005 µM (active) | < 0.005 µM (active) | < 0.005 µM (active) | < 0.005 µM (active) | < 0.005 µM (active) | < 0.005 µM (active)
15 | CC1=CC(=C(c2ccc(N)c(C)c2)c2ccc(N)c(C)c2)C=CC1=N | 15.5 µM (inactive) | 2.99 µM (inactive) | 4.2 µM (inactive) | 4.95 µM (inactive) | 4.49 µM (inactive) | 3.32 µM (inactive) | 2.97 µM (inactive) | 5.42 µM (inactive) | 0.689 µM (active) | 13.4 µM (inactive) | 5.92 µM (inactive) | 15.2 µM (inactive) | 2.69 µM (inactive) | 2.73 µM (inactive) | 3.37 µM (inactive) | 1.93 µM (inactive) |  |  | 
16 | CN(C)CCNC(=O)Cn1cnc2cccc([N+](=O)[O-])c2c1=O | > 100 µM (inactive) | > 100 µM (inactive) | > 100 µM (inactive) | > 100 µM (inactive) | > 100 µM (inactive) |  | > 100 µM (inactive) | > 100 µM (inactive) | > 100 µM (inactive) | > 100 µM (inactive) | > 100 µM (inactive) | > 100 µM (inactive) | > 100 µM (inactive) | > 100 µM (inactive) | > 100 µM (inactive) | > 100 µM (inactive) | > 100 µM (inactive) | > 100 µM (inactive) | > 100 µM (inactive)
17 | O=C(O)CSc1nnc(-c2ccccc2O)[nH]1 | > 100 µM (inactive) | > 100 µM (inactive) | > 100 µM (inactive) | > 100 µM (inactive) | > 100 µM (inactive) | > 100 µM (inactive) | > 100 µM (inactive) | > 100 µM (inactive) | > 100 µM (inactive) | > 100 µM (inactive) | > 100 µM (inactive) | > 100 µM (inactive) | > 100 µM (inactive) | > 100 µM (inactive) | > 100 µM (inactive) |  |  |  | 
18 | CC1(C)OP(=O)(O)CC1=O | > 100 µM (inactive) | > 100 µM (inactive) | > 100 µM (inactive) | > 100 µM (inactive) | > 100 µM (inactive) | > 100 µM (inactive) | > 100 µM (inactive) | > 100 µM (inactive) | > 100 µM (inactive) | > 100 µM (inactive) |  | > 100 µM (inactive) | > 100 µM (inactive) | > 100 µM (inactive) | > 100 µM (inactive) | > 100 µM (inactive) | > 100 µM (inactive) | > 100 µM (inactive) | > 100 µM (inactive)
